Measured values as given in US20030211076A1, “Compositions and methods for treatment of proliferative disorders” (priority 2003, published 2003).

Target: T1, lysyl oxidase (LO) (Bos taurus, UniProt P33072)
T1 construct: per mature LO molecule (32 kD); from tissue
T1 sequence (P33072 170-418): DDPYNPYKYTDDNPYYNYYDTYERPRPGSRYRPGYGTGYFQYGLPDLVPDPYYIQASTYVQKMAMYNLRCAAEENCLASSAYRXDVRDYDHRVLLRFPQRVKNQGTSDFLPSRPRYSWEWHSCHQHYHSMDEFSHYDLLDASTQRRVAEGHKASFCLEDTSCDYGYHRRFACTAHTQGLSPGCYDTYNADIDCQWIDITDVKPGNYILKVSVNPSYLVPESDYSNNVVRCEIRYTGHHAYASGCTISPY
Assay: LO-dependent H2O2 release, horseradish peroxidase-coupled fluorescence assay (substrate potential for LO)
Type: biochemical
Conditions: 55° C. and 37° C.
Procedure: The oxidation of a primary amine substrate by LO yields stoichiometric amounts of the corresponding aldehyde, hydrogen peroxide and ammonia, as shown: RCH2NH2+O2+H2O→RCHO+H2O2+NH3 (Kagan, 1986). To assess the substrate potential of FGF2, LO-dependent H2O2 release was monitored in assays using FGF2 as the sole substrate, using both the optimum temperature for LO activity of 55° C. and the physiological temperature of 37° C. (Trackman et al., 1981).
LO reaction with FGF2 as a substrate was assessed by a horseradish peroxidase-coupled fluorescence assay for H2O2 production. Reaction mixtures contained 0.25 mg of sodium homovanillate(HVA), 40 μg of HRP, and FGF2 at doses as indicated below in 0.05 M sodium borate buffer, pH 8.2, in a final volume of 2 ml. Assays were initiated by the addition of LO to reaction mixtures. H2O2 release was continuously monitored at excitation and emission wavelengths of 315 and 425 nm, respectively, at a constant temperature of 55° C. or 37° C., as specified, in the thermostatted cuvette chamber of an SLM Aminco Bowman Series 2 Luminescence Spectrometer. All activity data were corrected for background rates of H2O2 release determined in complete assay mixtures supplemented with 200 μM BAPN, an irreversible inhibitor of LO. In FIG. 4, solid curves represent the time course of H2O2 release at 55° C. in the reaction of 0.16 μM LO with 0.23 (a), 0.45 (b) and 0.9 (c) μM FGF2, respectively. Dotted curve (d) represents the time course of H2O2 release in the reaction of 0.16 μM LO with 0.9 μM FGF2 at 37° C. The same data were obtained from three separate experiments.
Using the fluorometric assay (Trackman et al., 1981) to monitor LO-dependent H2O2 release in vitro, the substrate potential of other growth factors was also assessed. Major members of the FGF family tested included FGF 1, 4, 5, 6, 7 and EGF (note: All factors are human recombinant forms purchased from R & D Systems, Inc., Minneapolis, Minn.).
A human recombinant disulfide-linked dimer of VEGF165 (MW: 42 kDa)(R & D Systems) as a sole substrate was tested by using the standard in vitro LO catalysis assays as described above for FIG. 4 (Trackman et al., 1981). Curves represent the time course of H2O2 release at 55° C. (a) or 37° C. (b) in the reaction of 0.10 μM LO with 0.45 μM VEGF165. All activity data were corrected for background rates of H2O2 release determined in complete assay mixtures supplemented with the same amounts of LO preincubated with 100 μM BAPN for 15 min at 37° C. The same data were obtained from three separate experiments.
The standard in vitro LO catalysis assays as described above for FIG. 4 (Trackman et al., 1981) using human recombinant PDGF-AB (R & D Systems) as a sole substrate was tested. […] In FIG. 19, curves represent the time course of H2O2 release at 55° C. (a) and 37° C. (b) in the reaction of 0.11 μM LO with 0.46 μM PDGF-AB, respectively. All activity data were corrected for background rates of H2O2 release determined in complete assay mixtures supplemented with the same amounts of LO preincubated with 100 μM BAPN for 15 minutes at 37° C. The same data were obtained from three separate experiments.
To analyze the substrate potential of Tat, the standard in vitro LO catalysis assays as described in FIG. 4 (Trackman et al., 1981) was performed at the optimum temperature of 55° C. and at the physiological temperature of 37° C. A recombinant Tat with 9 lysines in a total of 86 amino acids was used as a sole substrate. FIG. 12A represents a dose and temperature-dependent response. Curves represent the time course of H2O2 release at 55° C. (solid) or 37° C. (dotted) in the reaction of 0.10 μM LO with 0.22 (a and d), 0.43 (b and e) and 0.85 (c and f) μM Tat, respectively. All activity data were corrected for background rates of H2O2 release determined in complete assay mixtures supplemented with the same amounts of LO preincubated with 100 μM BAPN for 15 min at 37° C. […]

Compound: N#CCCN [BAPN, β-Aminopropionitrile, reference compound]
- effect on H2O2 release when added after the reaction of LO with Tat was initiated (100 μM BAPN added at 200 seconds): failed to block H2O2 release
- inhibition of the reaction of LO with Tat (LO preincubated with 100 μM BAPN for 5 minutes): totally inhibited
